Data reported in patent US7915050B2, “Regulatory genes for plant differentiation and growth, and use of the same” (National University Corporation Nagoya University, priority 2005, dated 2011).
pKd: −log10 of the molar value.

Assays:
[1] = molecular target: T1, AtGID1c in the presence of RGA (Arabidopsis thaliana, UniProt Q940G6); test: Scatchard analysis of AtGID1c-GA binding in the presence of RGA
T1 construct: made in house; host or cells: E. coli (stated for AtGID1)
T1 sequence (Q940G6 1-344): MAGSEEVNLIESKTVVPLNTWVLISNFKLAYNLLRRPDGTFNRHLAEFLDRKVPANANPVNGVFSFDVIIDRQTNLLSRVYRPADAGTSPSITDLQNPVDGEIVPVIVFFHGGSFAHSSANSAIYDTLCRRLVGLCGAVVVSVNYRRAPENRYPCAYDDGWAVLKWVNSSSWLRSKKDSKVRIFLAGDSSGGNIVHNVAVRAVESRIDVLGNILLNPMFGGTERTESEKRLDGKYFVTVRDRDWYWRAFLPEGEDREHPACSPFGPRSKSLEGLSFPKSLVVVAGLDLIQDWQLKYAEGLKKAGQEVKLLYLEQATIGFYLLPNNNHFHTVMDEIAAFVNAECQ
T1 sequence (Q9SLH3 1-587 partner): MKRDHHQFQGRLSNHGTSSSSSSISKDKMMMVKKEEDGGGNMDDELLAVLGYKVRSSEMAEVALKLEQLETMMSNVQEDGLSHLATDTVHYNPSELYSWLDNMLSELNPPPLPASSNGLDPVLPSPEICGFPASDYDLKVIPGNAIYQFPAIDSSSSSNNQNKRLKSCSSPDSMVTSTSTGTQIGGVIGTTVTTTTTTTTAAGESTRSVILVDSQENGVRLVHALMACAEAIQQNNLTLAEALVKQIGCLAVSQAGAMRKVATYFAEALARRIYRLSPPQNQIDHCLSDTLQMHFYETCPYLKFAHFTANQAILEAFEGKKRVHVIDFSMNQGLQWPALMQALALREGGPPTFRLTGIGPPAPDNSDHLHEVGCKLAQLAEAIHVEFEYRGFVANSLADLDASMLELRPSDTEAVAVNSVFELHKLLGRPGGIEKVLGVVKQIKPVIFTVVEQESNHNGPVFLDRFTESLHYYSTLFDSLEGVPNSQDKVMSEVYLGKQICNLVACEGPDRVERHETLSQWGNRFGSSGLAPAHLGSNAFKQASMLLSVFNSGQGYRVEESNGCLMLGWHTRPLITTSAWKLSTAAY
Protocol: (§1) Panel A) depicts AtGID1-AtDELLA interaction in the presence of GA in two types of yeast hybrid (Y2H) assays. Each AtGID1 was used as a bait while AtDELLA was a prey. GA4 (10^−5 M) was added to the medium. The bars indicates β-galactosidase activity when o-nitrophenol-β-D-galactopyranoside was used as a substrate (Assay B). The growth of each transformant in the defined medium for 2 days (Assay A) is shown beneath of each bar graph. The experiment was carried out in quadruplicate. The SD value shown in the figure was determined from three measurements. Panel B) depicts the dose response in AtGID1-RGA interaction in Assay B of Y2H. GA4 (10^−5 to 10^−9 M) was added to the medium. The experiment was conducted in […]. The SD value shown in the figure was determined from three measurements. Panel C) depicts the results of an evaluation of the in vitro GA-binding potency of AtGID1 using AtDELLA. […] GAI (G) or RGA (R) was added, and then the GA-binding activity in each reaction mixture was measured according to the standard method. […] The SD value was determined from three measurements. […]
(§2) Next, whether AtDELLAs exert some kind of influence on the GA-binding activity of AtGID1s was examined in vitro. After labeled 16,17-dihydro-GA4 and AtGID1s were combined, AtDELLAs were added to the solutions, and the GA-binding activity was measured. […]

[2] = molecular target: T2, AtGID1c in the presence of GAI (Arabidopsis thaliana, UniProt Q940G6); test: Scatchard analysis of AtGID1c-GA binding in the presence of GAI
T2 construct: made in house; host or cells: E. coli (stated for AtGID1)
T2 sequence (Q940G6 1-344): T1 sequence (Q940G6 1-344)
T2 sequence (Q9LQT8 1-533 partner): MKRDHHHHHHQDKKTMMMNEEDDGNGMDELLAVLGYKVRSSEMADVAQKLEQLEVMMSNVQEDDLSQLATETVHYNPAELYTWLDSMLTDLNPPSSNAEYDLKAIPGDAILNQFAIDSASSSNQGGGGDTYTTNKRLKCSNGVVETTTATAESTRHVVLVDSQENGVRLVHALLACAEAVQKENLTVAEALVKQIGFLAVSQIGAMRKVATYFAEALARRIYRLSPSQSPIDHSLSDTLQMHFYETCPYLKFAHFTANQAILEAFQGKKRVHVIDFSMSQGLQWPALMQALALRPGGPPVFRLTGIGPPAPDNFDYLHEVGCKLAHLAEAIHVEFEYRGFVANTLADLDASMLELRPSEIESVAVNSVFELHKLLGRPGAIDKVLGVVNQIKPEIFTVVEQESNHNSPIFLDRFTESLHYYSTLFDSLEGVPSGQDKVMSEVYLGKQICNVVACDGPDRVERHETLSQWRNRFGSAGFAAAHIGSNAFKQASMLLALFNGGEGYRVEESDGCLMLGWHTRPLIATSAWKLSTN
Protocol: as §1, §2

[3] = test system: GA-deficient Arabidopsis mutant ga1-3 seeds; test: Germination of GA-deficient ga1-3 seeds; assay type: in vivo
Protocol: The germination of GA-deficient gal-3 seeds in a medium containing 16,17-dihydro-GA4 was tested, according to the method of Yamaguchi et al. (Plant Cell, 10, 2115-2126, […]). Approximately 70 to 80 seeds were used per each dish. Three independent measurements were carried, and the standard deviation (SD) was determined from these measurements. The seeds were assessed for germination at 23° C. on day 4, after cold treatment at 4° C. for 3 days. GA4 was used as a reference.

CC1C[C@]23C[C@H]1CCC2[C@]12CC[C@H](O)[C@](C)(C(=O)O1)[C@H]2[C@@H]3C(=O)O (stereo partly drawn) [H2-GA4, 16,17-dihydro-GA4]
pKd [1]: 7.92 | pKd [2]: 7.34 | physiological effect on germination relative to GA4 [3]: about 1/10
